How the values were obtained:
ABUTH (Velvetleaf) = experiment: Postemergence herbicidal evaluation; assay type: in vivo, Abutilon theophrasti
How it was run: (§1)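 Each compound, dispersed in an acetone/water mix (50/50) carrying 0.5% TWEEN 20, is nozzle-sprayed at 40 psi on approximately two-week-old seedlings at about 0.0156–0.500 kg/ha. Plants are assessed 4–5 weeks afterward on a 0–9 scale relative to control; duplicate tests are averaged.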

AMBEL (Ragweed, Common) [1] = experiment: Postemergence herbicidal evaluation; assay type: in vivo, Ambrosia artemisifolia
How it was run: as §1

[2] = system: CHEAL (Lambsquarters, Common); experiment: Postemergence herbicidal evaluation; assay type: in vivo, Chenopodium album
How it was run: as §1

ECHCG (Barnyardgrass) = experiment: Postemergence herbicidal evaluation; assay type: in vivo, Echinochloa crus-galli
How it was run: as §1

[3] = system: GLXMAW (Soybean, Williams); experiment: Postemergence herbicidal evaluation; assay type: in vivo, Glycine max, (L.) Merr. cv Williams
How it was run: as §1

ORYSAT (Rice, Tebonnet) = experiment: Postemergence herbicidal evaluation; assay type: in vivo, Oryza sativa, (L.) Tebonnet
How it was run: as §1

ZEAMX (Corn, Field) = experiment: Postemergence herbicidal evaluation; assay type: in vivo, Zea mays
How it was run: as §1

AMBEL (Ragweed, Common) [4] = experiment: Preemergence herbicidal evaluation; assay type: in vivo, Ambrosia artemisifolia; settings: rated 4-5 weeks after treatment
How it was run: (§2)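 Greenhouse preemergence test: seed-soil mix sown on ~1 inch soil; aqueous acetone spray at equivalent of ~0.0156–0.500 kg/ha; greenhouse-held and watered; scored 0–9 visually at 4–5 weeks.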

CASOB (Sicklepod) = experiment: Preemergence herbicidal evaluation; assay type: in vivo, Cassia obtusifolia; settings: rated 4-5 weeks after treatment
How it was run: as §2

[5] = system: CHEAL (Lambsquarters, Common); experiment: Preemergence herbicidal evaluation; assay type: in vivo, Chenopodium album; settings: rated 4-5 weeks after treatment
How it was run: as §2

GALAP (Galium) = experiment: Preemergence herbicidal evaluation; assay type: in vivo, Galium aparine; settings: rated 4-5 weeks after treatment
How it was run: as §2

CYPSE (Flatsedge) [6] = experiment: Preemergence weed control under flooded paddy conditions; assay type: in vivo, Cyperus serotinus; settings: rated 3-4 weeks after treatment
How it was run: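 Seeds or propagules sown in silt loam kept flooded 1.5-3 cm; compounds in 50/50 acetone/water pipetted into flood water at about 0.0313 to 0.500 kg/ha. Greenhouse; visual 0-9 rating versus untreated control 3-4 weeks after treatment.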

CYPIR (Rice Flatsedge) = experiment: Postemergence weed control under flooded paddy conditions; assay type: in vivo, Cyperus iria; settings: postemergence weeds, 3-4 weeks after treatment
How it was run: (§3)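 With weeds 3 to 5 cm tall and rice at the 1.5 to 2.5 leaf stage, containers were flooded and water held 1.5 to 3 cm above soil. Compounds in 50/50 v/v aqueous/acetone went into the flood water at about 0.0313 to 0.500 kg/ha a.i. Effects were visually rated 0–9 against controls after three to four weeks in the greenhouse.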

CYPSE (Flatsedge) [7] = experiment: as above; assay type: in vivo, Cyperus serotinus; settings: postemergence weeds, 3-4 weeks after treatment
How it was run: as §3

`CCOC(=O)CN1CC(=O)N(CC(=O)OCC)C1=Nc1cc(-n2c(=O)cc(C(F)(F)F)n(C)c2=O)c(F)cc1Cl` [Compound 34, 2-{{2-Chloro-5-[3,6-dihydro-3-methyl-2,6-dioxo-4-(trifluoromethyl)-1(2H)-pyrimidinyl]-4-fluoro-phenyl}imino}-4-oxo-1,3-imidazolidinediacetic acid, diethyl ester] was tested. Which “Postemergence herbicidal rating ABUTH” value (ABUTH (Velvetleaf); Rate 0.0158 kg/ha) did it give?
Its value is 9.0.

And the “Postemergence herbicidal rating ABUTH” value (ABUTH (Velvetleaf); Rate 0.0315 kg/ha)?
The value was 9.0.

What about the “Postemergence herbicidal rating ABUTH” value (ABUTH (Velvetleaf); Rate 0.0630 kg/ha) of the same compound?
The value was 9.0.

And the “Postemergence herbicidal rating AMBEL” value (AMBEL (Ragweed, Common) [1]; Rate 0.0158 kg/ha)?
The value was 9.0.

What about the “Postemergence herbicidal rating AMBEL” value (AMBEL (Ragweed, Common) [1]; Rate 0.0315 kg/ha) of the same compound?
Its value is 9.0.

What about the “Postemergence herbicidal rating AMBEL” value (AMBEL (Ragweed, Common) [1]; Rate 0.0630 kg/ha) of the same compound?
The value was 9.0.

What about the “Postemergence herbicidal rating CHEAL” value ([2]; Rate 0.0158 kg/ha) of the same compound?
Its value is 7.0.

What about the “Postemergence herbicidal rating CHEAL” value ([2]; Rate 0.0315 kg/ha) of the same compound?
The value was 9.0.

What about the “Postemergence herbicidal rating CHEAL” value ([2]; Rate 0.0630 kg/ha) of the same compound?
Its value is 9.0.

And the “Postemergence herbicidal rating ECHCG” value (ECHCG (Barnyardgrass); Rate 0.0158 kg/ha)?
The value was 0.0.

And the “Postemergence herbicidal rating ECHCG” value (ECHCG (Barnyardgrass); Rate 0.0315 kg/ha)?
The value was 0.0.

What about the “Postemergence herbicidal rating ECHCG” value (ECHCG (Barnyardgrass); Rate 0.0630 kg/ha) of the same compound?
Its value is 1.0.

And the “Postemergence herbicidal rating GLXMAW” value ([3]; Rate 0.0158 kg/ha)?
Its value is 7.0.

And the “Postemergence herbicidal rating GLXMAW” value ([3]; Rate 0.0315 kg/ha)?
Its value is 7.0.

And the “Postemergence herbicidal rating GLXMAW” value ([3]; Rate 0.0630 kg/ha)?
The value was 7.0.

What about the “Postemergence herbicidal rating ORYSAT” value (ORYSAT (Rice, Tebonnet); Rate 0.0158 kg/ha) of the same compound?
The value was 1.0.

What about the “Postemergence herbicidal rating ORYSAT” value (ORYSAT (Rice, Tebonnet); Rate 0.0315 kg/ha) of the same compound?
Its value is 2.0.

And the “Postemergence herbicidal rating ORYSAT” value (ORYSAT (Rice, Tebonnet); Rate 0.0630 kg/ha)?
Its value is 3.5.

What about the “Postemergence herbicidal rating ZEAMX” value (ZEAMX (Corn, Field); Rate 0.0158 kg/ha) of the same compound?
The value was 5.5.

And the “Postemergence herbicidal rating ZEAMX” value (ZEAMX (Corn, Field); Rate 0.0315 kg/ha)?
Its value is 6.5.

What about the “Postemergence herbicidal rating ZEAMX” value (ZEAMX (Corn, Field); Rate 0.0630 kg/ha) of the same compound?
The value was 7.0.

And the “Preemergence herbicidal rating AMBEL” value (AMBEL (Ragweed, Common) [4]; rate 0.0313 kg/ha)?
Its value is 0.0.

And the “Preemergence herbicidal rating AMBEL” value (AMBEL (Ragweed, Common) [4]; rate 0.0625 kg/ha)?
The value was 4.0.

And the “Preemergence herbicidal rating AMBEL” value (AMBEL (Ragweed, Common) [4]; rate 0.1250 kg/ha)?
The value was 4.0.

And the “Preemergence herbicidal rating AMBEL” value (AMBEL (Ragweed, Common) [4]; rate 0.2500 kg/ha)?
Its value is 7.0.

What about the “Preemergence herbicidal rating CASOB” value (CASOB (Sicklepod); rate 0.0313 kg/ha) of the same compound?
The value was 0.0.

And the “Preemergence herbicidal rating CASOB” value (CASOB (Sicklepod); rate 0.0625 kg/ha)?
The value was 0.0.

And the “Preemergence herbicidal rating CASOB” value (CASOB (Sicklepod); rate 0.1250 kg/ha)?
Its value is 0.0.

What about the “Preemergence herbicidal rating CASOB” value (CASOB (Sicklepod); rate 0.2500 kg/ha) of the same compound?
Its value is 0.0.

What about the “Preemergence herbicidal rating CHEAL” value ([5]; rate 0.0313 kg/ha) of the same compound?
Its value is 9.0.

And the “Preemergence herbicidal rating CHEAL” value ([5]; rate 0.0625 kg/ha)?
Its value is 9.0.

And the “Preemergence herbicidal rating CHEAL” value ([5]; rate 0.1250 kg/ha)?
The value was 9.0.

And the “Preemergence herbicidal rating CHEAL” value ([5]; rate 0.2500 kg/ha)?
The value was 9.0.

What about the “Preemergence herbicidal rating GALAP” value (GALAP (Galium); rate 0.0313 kg/ha) of the same compound?
The value was 0.0.

And the “Preemergence herbicidal rating GALAP” value (GALAP (Galium); rate 0.0625 kg/ha)?
Its value is 7.0.

What about the “Preemergence herbicidal rating GALAP” value (GALAP (Galium); rate 0.1250 kg/ha) of the same compound?
The value was 7.0.

And the “Preemergence herbicidal rating GALAP” value (GALAP (Galium); rate 0.2500 kg/ha)?
The value was 9.0.

And the “Herbicidal rating CYPSE” value (CYPSE (Flatsedge) [6]; 0.0313 kg/ha)?
The value was 0.0.

What about the “Herbicidal rating CYPSE” value (CYPSE (Flatsedge) [6]; 0.0625 kg/ha) of the same compound?
The value was 0.0.

What about the “Herbicidal rating CYPSE” value (CYPSE (Flatsedge) [6]; 0.1250 kg/ha) of the same compound?
Its value is 0.0.

And the “Herbicidal rating CYPSE” value (CYPSE (Flatsedge) [6]; 0.2500 kg/ha)?
Its value is 0.0.

What about the “Herbicidal rating CYPIR” value (CYPIR (Rice Flatsedge); rate 0.0313 kg/ha) of the same compound?
The value was 0.0.

And the “Herbicidal rating CYPIR” value (CYPIR (Rice Flatsedge); rate 0.0625 kg/ha)?
The value was 0.0.

What about the “Herbicidal rating CYPIR” value (CYPIR (Rice Flatsedge); rate 0.1250 kg/ha) of the same compound?
Its value is 0.0.

And the “Herbicidal rating CYPIR” value (CYPIR (Rice Flatsedge); rate 0.2500 kg/ha)?
Its value is 0.0.

What about the “Herbicidal rating CYPSE” value (CYPSE (Flatsedge) [7]; rate 0.0313 kg/ha) of the same compound?
Its value is 0.0.

What about the “Herbicidal rating CYPSE” value (CYPSE (Flatsedge) [7]; rate 0.0625 kg/ha) of the same compound?
The value was 0.0.

What about the “Herbicidal rating CYPSE” value (CYPSE (Flatsedge) [7]; rate 0.1250 kg/ha) of the same compound?
The value was 0.0.

And the “Herbicidal rating CYPSE” value (CYPSE (Flatsedge) [7]; rate 0.2500 kg/ha)?
Its value is 0.0.

Reference: patent US20020137929A1, “1 - (3-heterocyclylphenyl) isothiourea, -isourea, -guanidine and -amidine herbicidal agents” (Intellectual Property Department, BASF Aktiengesellschaft, priority 1998, published 2002)
